Experimental data: patent publication US9408847B2, “Combination therapy” (Novartis AG, priority 2012, dated 2016)

System: MCF7 tumor xenograft
Assay: MCF7 tumor xenograft model in vivo
Settings: female nude mice
Description: MCF-7 cells were purchased from American Type Culture Collection (ATCC). They were tested free of mycoplasma and viral contamination in the IMPACT VIII PCR assay panel (RADIL, MU Research Animal Diagnostic Laboratory, Columbia, Mo.). They were cultured in EMEM medium (ATCC#30-2003) containing 10% heat inactivated fetal bovine serum, and were at passage 18 for this experiment. Female, nude mice from Harlan (Hsd:Athymic Nude-Foxn1nu) were used in this xenograft study. Mice received 17b-estradiol pellets (0.18 mg/pellet, 90-day release) (Innovative research of America Catalog # NE-121) implanted between the shoulder blades three days before cell implantation. Tumor volume and body weight were monitored throughout the experiment.

| Structure (SMILES) | T/T0 (monotherapy at 5 mg/kg) | T/T0 (monotherapy at 75 mg/kg) |
| --- | --- | --- |
| COC1CC2CC[C@@H](C)[C@@](O)(O2)C(=O)C(=O)N2CCCC[C@H]2C(=O)OC(C(C)C[C@@H]2CCC(OCCO)[C@H](OC)C2)CC(=O)C(C)/C=C(\C)[C@@H](O)C(OC)C(=O)[C@H](C)CC(C)/C=C/C=C/C=C/1C (stereo in doubt) [Compound B, (1R,9S,12S,15R,16E,18R,19R,21R,23S,24E,26E,28E,30S,32S,35R)-1,18-dihydroxy-12-{(1R)-2-[(1S,3R,4R)-4-(2-hydroxyethoxy)-3-methoxycyclohexyl]-1-methylethyl}-19,30-dimethoxy-15,17,21,23,29,35-hexamethyl-11,36-dioxa-4-aza-tricyclo[30.3.1.04,9]hexatriaconta-16,24,26,28-tetraene-2,3,10,14,20-pentaone] | −21% |  |
| CN(C)C(=O)c1cc2cnc(Nc3ccc(N4CCNCC4)cn3)nc2n1C1CCCC1 [Compound A] |  | −9% |
